Results on one substance are retold here after article PMC9764201, “Half-calcified calmodulin promotes basal activity and inactivation of the L-type calcium channel CaV1.2” (The Journal of Biological Chemistry, 2022).

In this experiment the test system is CaV1.2. The experiment is described as follows: Cell-attached single-channel recording of CaV1.2 variants in HEK 293T/17 cells. The class given is cell-based, rat. The conditions noted are these: 110 mM Ba2+, 0 mV from -80 mV; n=8; mean±SEM (Table S2). Here is the method:
HEK 293T/17 cells (ATCC) were maintained as previously described ([15], [53]). For electrophysiology, Lipofectamine 2000 (Invitrogene) or JetPrime (Polyplus Transfection) was used to transiently transfect cells with indicated plasmid DNAs in 35 mm dishes. For biochemistry experiments, transient transfection of HEK 293T/17 cells in […] dishes was achieved using either JetPrime or, as previously described ([15], [53]), the calcium phosphate method. Cells were cotransfected with plasmids encoding the pore-forming α11.2 subunit N-terminally tagged with eCFP ([15], [53]) or mCherry ([54]) plus pGWIH-based plasmids encoding the auxiliary subunits rat β2A ([55]) and rabbit α2δ-1 ([56]) as previously described ([15], [53]). For all transfections, equimolar ratio of 1:1:1 was used for CaV1.2 channel subunits and later further optimized (JetPrime) for CaM (at ratio of 1:1:1:0.5 for α11.2:β2A:α2δ−1:CaM). Rat brain α11.2 (GenBank ID: M67515.1) N-terminally fused to eCFP was utilized as previously described ([15]). The point mutations in plasmids encoding single-residue I1654A, Y1657D (this report), and K1662E exchanges in α11.2 were generated via QuikChange II as previously described ([15], [53]) using N-terminally eCFP ([15], [53]) or mCherry tagged ([54]) rat brain α11.2 plasmid template DNAs. We studied CDI using mCherry-tagged α11.2 subunit coexpressed with the other, untagged CaV1.2 subunits and WT CaM or the calmodulin 34 mutant CaM34 (kindly provided by JP Adelman, ([8])). For some biochemical experiments shown in Fig. S2, YFP-tagged CaM was used ([32]).
Single-channel recordings were performed as described previously ([15], [31]). In brief, low noise raw data were recorded with an Axopatch 200B amplifier and data were sampled at 10 kHz with a low-pass filter at 2 kHz (3 dB, four pole Bessel) and digitalized with a Digidata 1440 digitizer. Recording electrodes were pulled from borosilicate capillary glass ([…]) with a Flaming/Brown micropipette puller (Model P-97, Sutter Instruments), heat polished, and coated with Sylgard (Sylgard 289) until close to the electrode tip. Electrode resistance in solution was usually 5 to 10 MΩ. To keep the membrane potential close to 0 mV the extracellular bath solution contained (in mM) 120 K-Glutamate, 25 KCl, 2 MgCl2, 1 CaCl2, 10 EGTA, 10 Hepes, and 2 Na2-ATP pH 7.4 (KOH). The intracellular pipette solution contained (in mM) 110 BaCl2 and 10 Hepes, adjusted to pH 7.4 (TEA-OH). Cells were depolarized for 2 s from a holding potential of -80 mV to 0 mV every 7 s. Event lists were created from raw Ba^2+ currents after leak and capacity transients were digitally subtracted by pClamp 10. Unitary current events were then analyzed based on the half-height criterium ([57]) using the single-channel software provided by pClamp 10.
For statistical analysis, single-channel parameters were corrected by the channel number (k), respectively, the maximum of simultaneously open channels (PMAX). The number of channels in the patch was estimated based on the observed simultaneous openings and is a precise parameter for k < 4, as included in this article and originally described by R. Horn ([58]). On average, 100 to 200 Ba^2+ current traces were recorded for each cell for each experimental condition for an appropriate statistical analysis.
Table S2. Biophysical properties of WT and Y1657D mutant CaV1.2 as determined by single channel recordings with 110 mM Ba2+. HEK 293T/17 cells were transiently transfected with eCFP-tagged rat CaV1.2 (WT versus Y1657D) plus α2δ1 and β2a. Single-channel parameter were corrected for the number of channels (k) in the patch. Availability denotes the number of active over […] traces. Popen (Po) is the open probability within active traces. Ipeak is the current flown through all channels in a patch at the time point of the current maximum and was corrected by the number of channels. Mean ensemble average (MEA) is the mean average current of all traces after being superimposed. […]

As for “CaV1.2: WT rat brain α11.2 with α2δ1 and β2A expressed in HEK 293T/17 cells”, the Availability was determined as 65±12%, the IPeak was found to be 21.2±5.3 fA, the “MEA (mean ensemble average)” value came out at 8.5±2.4 fA and the “MOT (mean open time)” value is 1.4 ± 0.2 ms. For the same substance, the Po is listed as 2.0±0.5% and the unitary i was 0.7±0.04 pA.
